Laboratory results from patent publication US11845959B2, “Identification of factor that promotes human HSC self-renewal” (THE REGENTS OF THE UNIVERSITY OF CALIFORNIA, priority 2016, dated 2023).

Test system: human HSPC
Experiment: Flavopiridol treatment of human HSPC, HSPC expansion in culture (FACS, total HSPC expansion over time)
Assay type: cell-based
Conditions: 100 nM, similarly to MLLT3 overexpression
Excerpt: We investigated whether an effect on transcription elongation by a different factor might change the effect. We determined that Treatment of human HSPC with Flavopiridol, a regulator of transcription elongation machinery, expands HSPC in culture.

## CN1CC[C@H](c2c(O)cc(O)c3c(=O)cc(-c4ccccc4Cl)oc23)[C@H](O)C1 [Flavopiridol]
  HSPC expansion in culture: sustained HSPC expansion in culture
